Experimental data as given in US8461328B2, “Tricyclic heterocyclic compounds, compositions and methods of use thereof” (Genentech, Inc., priority 2010, dated 2013).

Columns and labels:
Type in all cases: biochemical
[1] = target: T1, JAK1 (Homo sapiens, UniProt P23458); assay: JAK1 inhibition (Table 4); details: read-out: JAK1 Ki
T1 construct: made in house; host or cells: SF9 insect cells (baculovirus)

[2] = target: T2, JAK2 (Homo sapiens, UniProt O60674); assay: JAK2 inhibition (Table 4); details: read-out: JAK2 Ki
T2 construct: made in house; host or cells: SF9 insect cells (baculovirus)

[3] = target: T3, JAK3 (Homo sapiens, UniProt P52333); assay: JAK3 inhibition (Table 4); details: read-out: JAK3 Ki
T3 construct: made in house; host or cells: SF9 insect cells (baculovirus)

[4] = target: T4, TYK2 (Homo sapiens, UniProt P29597); assay: TYK2 inhibition (Table 4)
T4 construct: made in house; host or cells: SF9 insect cells (baculovirus)
T4 sequence (P29597 873-1187): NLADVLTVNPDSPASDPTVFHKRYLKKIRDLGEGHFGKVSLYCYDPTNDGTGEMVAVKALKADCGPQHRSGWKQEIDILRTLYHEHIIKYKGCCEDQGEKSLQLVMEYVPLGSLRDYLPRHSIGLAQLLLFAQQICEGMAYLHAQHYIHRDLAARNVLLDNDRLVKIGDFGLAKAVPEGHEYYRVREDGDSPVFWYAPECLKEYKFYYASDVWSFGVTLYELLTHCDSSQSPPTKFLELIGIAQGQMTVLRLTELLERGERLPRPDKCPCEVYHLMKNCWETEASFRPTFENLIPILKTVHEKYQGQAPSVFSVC

T1 sequence (P23458 852-1154): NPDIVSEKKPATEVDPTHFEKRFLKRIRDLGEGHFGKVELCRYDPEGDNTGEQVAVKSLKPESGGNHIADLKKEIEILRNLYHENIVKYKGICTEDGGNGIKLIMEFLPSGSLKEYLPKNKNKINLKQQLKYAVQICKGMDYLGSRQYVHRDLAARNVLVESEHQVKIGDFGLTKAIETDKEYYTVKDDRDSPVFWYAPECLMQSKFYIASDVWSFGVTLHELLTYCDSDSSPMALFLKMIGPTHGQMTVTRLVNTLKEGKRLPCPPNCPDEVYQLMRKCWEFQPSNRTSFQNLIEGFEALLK
T3 sequence (P52333 783-1124): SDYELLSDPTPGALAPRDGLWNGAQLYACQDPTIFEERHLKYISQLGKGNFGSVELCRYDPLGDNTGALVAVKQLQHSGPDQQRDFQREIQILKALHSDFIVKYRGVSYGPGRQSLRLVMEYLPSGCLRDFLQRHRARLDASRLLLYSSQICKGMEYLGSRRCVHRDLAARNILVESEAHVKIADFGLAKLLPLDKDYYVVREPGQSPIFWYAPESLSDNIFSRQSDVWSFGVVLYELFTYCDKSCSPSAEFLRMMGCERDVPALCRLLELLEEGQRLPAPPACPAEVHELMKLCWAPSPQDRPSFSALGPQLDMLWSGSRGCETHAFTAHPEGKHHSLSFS
T2 sequence (O60674 812-1132): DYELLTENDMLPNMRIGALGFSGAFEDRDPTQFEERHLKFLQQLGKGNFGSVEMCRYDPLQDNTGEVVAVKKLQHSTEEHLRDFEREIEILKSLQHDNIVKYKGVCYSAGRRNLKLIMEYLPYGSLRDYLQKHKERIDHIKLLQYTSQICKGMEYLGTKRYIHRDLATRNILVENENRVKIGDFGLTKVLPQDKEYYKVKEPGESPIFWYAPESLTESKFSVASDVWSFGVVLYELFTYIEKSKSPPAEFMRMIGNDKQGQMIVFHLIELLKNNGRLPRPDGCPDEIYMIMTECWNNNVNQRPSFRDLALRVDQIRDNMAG

| SMILES | Ki [1] | Ki [2] | Ki [3] | Ki [4] |
| --- | --- | --- | --- | --- |
| N#CCCN1CCC(n2c(CNS(=O)(=O)C3CCCC3)nc3cnc4[nH]ccc4c32)CC1 [Example 499, Cyclopentanesulfonic acid {1-[1-(2-cyano-ethyl)-piperidin-4-yl]-1,6-dihydro-1,3,5,6-tetraaza-as-indacen-2-ylmethyl}-amide] | 13.8 nM | 85.6 nM | 103 nM | 417 nM |
| N#CCCN1CCC(n2c(CNC(=O)c3ccccc3F)nc3cnc4[nH]ccc4c32)CC1 [Example 501, N-{1-[1-(2-Cyano-ethyl)-piperidin-4-yl]-1,6-dihydro-1,3,5,6-tetraaza-as-indacen-2-ylmethyl}-2-fluoro-benzamide] | 3.93 nM | 12 nM | 12.2 nM | 56.4 nM |
| N#CCCN1CCC(n2c(CNC(=O)c3cccc(F)c3)nc3cnc4[nH]ccc4c32)CC1 [Example 505, N-{1-[1-(2-Cyano-ethyl)-piperidin-4-yl]-1,6-dihydro-1,3,5,6-tetraaza-as-indacen-2-ylmethyl}-3-fluoro-benzamide] | 5.18 nM | 22.4 nM | 20.4 nM | 98.8 nM |
| O=S(=O)(CCC(F)(F)F)NCCc1nc2cnc3[nH]ccc3c2n1C1CCCCC1 [Example 509, 3,3,3-Trifluoro-propane-1-sulfonic acid [2-(1-cyclohexyl-1,6-dihydro-1,3,5,6-tetraaza-as-indacen-2-yl)-ethyl]-amide] | 2.55 nM | 23.6 nM | 65.5 nM | 21.6 nM |
| CN(C)CC(=O)NCCc1nc2cnc3[nH]ccc3c2n1C1CCCCC1 [Example 510, N-[2-(1-Cyclohexyl-1,6-dihydro-1,3,5,6-tetraaza-as-indacen-2-yl)-ethyl]-2-dimethylamino-acetamide] | 3.91 nM | 51.1 nM | 132 nM | 20.8 nM |
| CN1CCN(S(=O)(=O)NCCc2nc3cnc4[nH]ccc4c3n2C2CCCCC2)CC1 [Example 511, 4-Methyl-piperazine-1-sulfonic acid [2-(1-cyclohexyl-1,6-dihydro-1,3,5,6-tetraaza-as-indacen-2-yl)-ethyl]-amide] | 5.3 nM | 48.9 nM | 174 nM | 30.3 nM |
| CCN1CC[C@@H](n2nnc3cnc4[nH]ccc4c32)[C@@H](F)C1 [Example 522, 1-((3S,4R)-1-Ethyl-3-fluoro-piperidin-4-yl)-1,6-dihydro-1,2,3,5,6-pentaaza-as-indacene] | 38.5 nM | 56.9 nM | 180 nM | 356 nM |
| CCN1CC[C@@H](n2cnc3cnc4[nH]ccc4c32)[C@@H](F)C1 [Example 523, 1-((3S,4R)-1-Ethyl-3-fluoro-piperidin-4-yl)-1,6-dihydro-1,3,5,6-tetraaza-as-indacene] | 11.2 nM | 16.7 nM | 302 nM | 85.6 nM |
| C[C@H](O)c1nc2cnc3[nH]ccc3c2n1C1CCOCC1 [Example 543, (S)-1-[1-(Tetrahydro-pyran-4-yl)-1,6-dihydro-1,3,5,6-tetraaza-as-indacen-2-yl]-ethanol] | 82.6 nM | 384 nM | 179 nM | 274 nM |
| CC(C)N1CCC(n2cnc3cnc4[nH]ccc4c32)CC1 [Example 549, 1-(1-Isopropyl-piperidin-4-yl)-1,6-dihydro-1,3,5,6-tetraaza-as-indacene] | 92.4 nM | 182 nM | 3490 nM | 809 nM |
| CC(=O)N1CCC(N[C@H]2CC[C@H](n3cnc4cnc5[nH]ccc5c43)CC2)CC1 [Example 555, trans 1-{4-[4-(6H-1,3,5,6-Tetraaza-as-indacen-1-yl)-cyclohexylamino]-piperidin-1-yl}-ethanone] | 33 nM | 276 nM | 491 nM | 302 nM |
| CC(C)(C)OC(=O)N1CCC[C@@H]1CN[C@H]1CC[C@H](n2cnc3cnc4[nH]ccc4c32)CC1 [Example 556, trans (R)-2-{[4-(6H-1,3,5,6-Tetraaza-as-indacen-1-yl)-cyclohexylamino]-methyl}-pyrrolidine-1-carboxylic acid tert-butyl ester] | 60.4 nM | 190 nM | 894 nM | 1460 nM |
| CC(C)(C)OC(=O)N1CC(CN[C@H]2CC[C@H](n3cnc4cnc5[nH]ccc5c43)CC2)C1 [Example 557, trans 3-{[4-(6H-1,3,5,6-Tetraaza-as-indacen-1-yl)-cyclohexylamino]-methyl}-azetidine-1-carboxylic acid tert-butyl ester] | 21.4 nM | 136 nM | 310 nM | 443 nM |
| CC(C)(C)OC(=O)N1CCC(N[C@H]2CC[C@H](n3cnc4cnc5[nH]ccc5c43)CC2)CC1 [Example 558, trans 4-[4-(6H-1,3,5,6-Tetraaza-as-indacen-1-yl)-cyclohexylamino]-piperidine-1-carboxylic acid tert-butyl ester] | 6.94 nM | 60.9 nM | 110 nM | 39.2 nM |
| CC(C)(C)OC(=O)N1CCCC[C@@H]1CN[C@H]1CC[C@H](n2cnc3cnc4[nH]ccc4c32)CC1 [Example 563, trans (R)-2-{[4-(6H-1,3,5,6-Tetraaza-as-indacen-1-yl)-cyclohexylamino]-methyl}-piperidine-1-carboxylic acid tert-butyl ester] | 91 nM | 611 nM | 2360 nM | 3320 nM |
| CC(C)(C)OC(=O)N1CCC[C@H](CN[C@H]2CC[C@H](n3cnc4cnc5[nH]ccc5c43)CC2)C1 [Example 565, trans (R)-3-{[4-(6H-1,3,5,6-Tetraaza-as-indacen-1-yl)-cyclohexylamino]-methyl}-piperidine-1-carboxylic acid tert-butyl ester] | 90.8 nM | 397 nM | 1050 nM | 1950 nM |
| CC(C)(C)OC(=O)N1CCC[C@@H](CN[C@H]2CC[C@H](n3cnc4cnc5[nH]ccc5c43)CC2)C1 [Example 566, trans (S)-3-{[4-(6H-1,3,5,6-Tetraaza-as-indacen-1-yl)-cyclohexylamino]-methyl}-piperidine-1-carboxylic acid tert-butyl ester] | 20.5 nM | 186 nM | 498 nM | 260 nM |

Next, values leading:

| Ki [1] | Ki [2] | Ki [3] | Ki [4] | SMILES |
| --- | --- | --- | --- | --- |
| 28.7 nM | 58.7 nM | 41 nM | 394 nM | N#CCCN1CCC(n2c(CNC(=O)C3CC3)nc3cnc4[nH]ccc4c32)CC1 [Example 500, Cyclopropanecarboxylic acid {1-[1-(2-cyano-ethyl)-piperidin-4-yl]-1,6-dihydro-1,3,5,6-tetraaza-as-indacen-2-ylmethyl}-amide] |
| 2.54 nM | 10.4 nM | 19.6 nM | 50.5 nM | COCC(=O)NCc1nc2cnc3[nH]ccc3c2n1C1CCN(CCC#N)CC1 [Example 503, N-{1-[1-(2-Cyano-ethyl)-piperidin-4-yl]-1,6-dihydro-1,3,5,6-tetraaza-as-indacen-2-ylmethyl}-2-methoxy-acetamide] |
| 7.75 nM | 25.4 nM | 53.6 nM | 116 nM | CCS(=O)(=O)NCc1nc2cnc3[nH]ccc3c2n1C1CCN(CCC#N)CC1 [Example 504] |
| 5.75 nM | 53.7 nM | 74 nM | 179 nM | CC(C)CS(=O)(=O)NCc1nc2cnc3[nH]ccc3c2n1C1CCN(CCC#N)CC1 [Example 506, 2-Methyl-propane-1-sulfonic acid {1-[1-(2-cyano-ethyl)-piperidin-4-yl]-1,6-dihydro-1,3,5,6-tetraaza-as-indacen-2-ylmethyl}-amide] |
| 2.14 nM | 10.3 nM | 23.2 nM | 10.2 nM | OCc1nc2cnc3[nH]ccc3c2n1C1CCN(CCF)CC1 [Example 508, {1-[1-(2-Fluoro-ethyl)-piperidin-4-yl]-1,6-dihydro-1,3,5,6-tetraaza-as-indacen-2-yl}-methanol] |
| 0.84 nM | 2.16 nM | 7.63 nM | 6.95 nM | Cc1nc2cnc3[nH]ccc3c2n1C1CCN(CCF)CC1 [Example 513, 1-[1-(2-Fluoro-ethyl)-piperidin-4-yl]-2-methyl-1,6-dihydro-1,3,5,6-tetraaza-as-indacene] |
| 3.48 nM | 7.04 nM | 25.4 nM | 48.8 nM | CCN1CC[C@@H](n2c(C)nc3cnc4[nH]ccc4c32)[C@@H](F)C1 [Example 521, 1-((3S,4R)-1-Ethyl-3-fluoro-piperidin-4-yl)-2-methyl-1,6-dihydro-1,3,5,6-tetraaza-as-indacene] |
| 0.66 nM | 1.45 nM | 3 nM | 5.61 nM | N#CCCN1CCC(n2c(CF)nc3cnc4[nH]ccc4c32)CC1 [Example 530, 3-[4-(2-Fluoromethyl-6H-1,3,5,6-tetraaza-as-indacen-1-yl)-piperidin-1-yl]-propionitrile] |
| 18.2 nM | 76.6 nM | 51 nM | 27.3 nM | OCc1nc2cnc3[nH]ccc3c2n1C1CCOCC1 [Example 542, [1-(Tetrahydro-pyran-4-yl)-1,6-dihydro-1,3,5,6-tetraaza-as-indacen-2-yl]-methanol] |
| 27.4 nM | 184 nM | 1410 nM | 638 nM | Cc1nc2cnc3[nH]ccc3c2n1C1CCN(C(C)C)CC1 [Example 547, 1-(1-Isopropyl-piperidin-4-yl)-2-methyl-1,6-dihydro-1,3,5,6-tetraaza-as-indacene] |
